Data: patent US20160108098A1, “THERAPEUTIC PEPTIDES” (GLAXOSMITHKLINE INTELLECTUAL PROPERTY DEVELOPMENT LIMITED, priority 2013, published 2016)

Tests used:
[1] = chronic (41 days) efficacy study in diet-induced obese (DIO) Long Evans rats: body weight, body composition, food intake; type: in vivo, Long Evans rat; details: for weight loss vs. vehicle: 40 days, subcutaneous osmotic pumps, ED50 doses; for fat mass lost from vehicle control: QMR, day 40 of treatment; for inhibition of cumulative food intake: treatment period, vs. vehicle control
Protocol: Rats were 17 weeks old at the start of the study. The rats were housed 1 per cage and given ad libitum access to TD.95217 chow and water, maintained on a 12 h light/dark cycle from 5:00 AM to 5:00 PM at 21° C. and 50% relative humidity and allowed to acclimate for at least 7 days prior to baseline measurements. Baseline fat mass and non-fat mass measurements were taken 3 days before the start of peptide infusion and on day 40 of treatment using a QMR instrument (Echo Medical Systems, Houston, Tex.). […] Each rat was implanted with two osmotic pumps subcutaneously in the scapula region containing vehicle or peptide according to their treatment group. Body weight and food intake were measured twice per week beginning three days before the 41-day treatment period. On day 41 of treatment, whole blood was collected by cardiac stick under isoflurane anesthesia. Plasma and serum were then prepared from the whole blood for serum chemistry analysis. All the data are presented as mean±SEM. The data were analyzed in either Prism (GraphPad Software, Inc., La Jolla, Calif.) or Excel using a Student's T-test to compare each group to the appropriate control group. P-values<0.05 were considered to indicate a significant difference between treatment groups.

[2] = chronic (26 days) efficacy study in Zucker Diabetic Fatty (ZDF) rats: glucose, HbA1c; type: in vivo, Zucker Diabetic Fatty (ZDF) rat; details: for ΔΔ % HbA1c / ΔΔGlucose: 26 days of treatment, change from baseline and vehicle control; for ΔΔGlucose: ED20 doses
Source text: Male ZDF rats were 12 weeks old at the start of the study (Charles River, Inc. Boston, Mass.). […] Baseline fat mass and non-fat mass measurements were taken 3 days before the start of peptide infusion and on day 26 of treatment using a QMR instrument (Echo Medical Systems, Houston, Tex.). […] P-values<0.05 were considered to indicate a significant difference between treatment groups.

[3] = molecular target: T1, human Neuropeptide Y receptor type 2 (Homo sapiens, UniProt P49146); experiment: melanophore assay, potency at the human Neuropeptide Y receptor type 2; type: cell-based; details: read-out: hNPY Y2 pEC50 (converted)
T1 construct: expressed in transfected cells; host or cells: melanophores; own knowledge: in the cited Jayawickreme protocol these are Xenopus laevis melanophores transfected with the receptor
T1 sequence (P49146 1-381): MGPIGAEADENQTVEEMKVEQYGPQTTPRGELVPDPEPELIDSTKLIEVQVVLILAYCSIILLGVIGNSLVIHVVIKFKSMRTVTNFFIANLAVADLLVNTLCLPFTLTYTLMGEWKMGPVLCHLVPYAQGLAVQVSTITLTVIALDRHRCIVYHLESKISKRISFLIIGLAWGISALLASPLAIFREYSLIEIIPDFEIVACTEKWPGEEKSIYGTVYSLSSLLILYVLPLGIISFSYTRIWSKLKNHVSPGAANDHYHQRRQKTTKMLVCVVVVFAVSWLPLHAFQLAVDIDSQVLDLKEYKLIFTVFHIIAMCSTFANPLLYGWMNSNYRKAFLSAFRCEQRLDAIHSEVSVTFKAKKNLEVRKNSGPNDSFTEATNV

[4] = cumulative food intake, diet-induced obese mice (Model B), BioDaQ system; type: in vivo; details: diet-induced obese C57BL/6 mice, 1 mg/kg subcutaneously, cumulative food intake after 6 h, relative to vehicle controls
Protocol: Cumulative food intake after 6 h was determined for the PYY analogs in either lean (Model A) or diet-induced obese (DIO) (Model B) C57BL/6 mice in a BioDaQ system for continuous monitoring of food intake (Research Diets Inc., New Brunswick, N.J.). […] Mice were placed singly into the BioDaQ cages and acclimatized for a minimum of 6 days and were allowed ad libitum access to food and water. Approximately 1 hour prior to lights-out, animals were dosed subcutaneously with either vehicle (20 mM Acetate buffer, pH 4.9 or 20% DMSO in water) or analogs dissolved in vehicle (1 mg/kg) (8 animals per group). Once all animals have been dosed, feeder gates were opened providing ad-libitum access to food. Continuous food intake was monitored and collected for 15 hours. […] P-values<0.05 were considered to indicate a significant difference between treatment groups.

Molecule	weight loss vs. vehicle [1] [%]	fat mass lost from vehicle control [1] [grams]	inhibition of cumulative food intake [1] [%]	ΔΔ % HbA1c [2] [%]	ΔΔGlucose [2]	EC50 [3] [nM]	% reduction in food intake, model B [4] [%]	ED50 for weight loss ([1]; dose used for infusion) [mg/kg/day]	ΔΔGlucose ([2]; listed as Exendin-4) [mg/dL]	ED20 for HbA1c lowering ([2]; dose used for infusion) [mg/kg/day]
PYY(3-36)NH2	−1.3	−10.9	−0.7	0.01 ± 0.4	−33.1 ± 17^ mg/dL	–	–	–	–	–
CC(C)C[C@H](NC(=O)[C@H](CO)NC(=O)[C@H](C)NC(=O)[C@H](Cc1ccc(O)cc1)NC(=O)[C@H](Cc1ccc(O)cc1)NC(=O)[C@H](CCCNC(=N)N)NC(=O)[C@H](CC(N)=O)NC(=O)[C@H](Cc1c[nH]c2ccccc12)NC(=O)[C@H](CCC(=O)O)NC(=O)[C@H](CCC(=O)O)NC(=O)[C@@H]1CCCN1C(=O)[C@H](CO)NC(=O)[C@H](C)NC(=O)[C@H](CC(=O)O)NC(=O)[C@H](CCCCN)NC(=O)CNC(=O)[C@@H]1CCCN1C(=O)[C@H](Cc1c[nH]cn1)NC(=O)[C@H](CCC(=O)O)NC(=O)[C@@H]1CCCN1C(=O)[C@H](CCCCN)NC(=O)[C@@H]1CCCN1)C(=O)N[C@@H](CCCNC(=N)N)C(=O)N[C@@H](CCCCN)C(=O)N[C@@H](Cc1ccc(O)cc1)C(=O)N[C@@H](CC(C)C)C(=O)N[C@@H](CC(N)=O)C(=O)N[C@@H](Cc1c[nH]c2ccccc12)C(=O)N[C@H](C(=O)N[C@H](C(=O)N[C@@H](CCCNC(=N)N)C(=O)N[C@@H](CCC(N)=O)C(=O)N[C@@H](CCCNC(=N)N)C(=O)N[C@@H](Cc1ccc(O)cc1)C(N)=O)[C@@H](C)O)C(C)C [Example 25]	–	–	–	–	–	0.251	−68	–	–	–
exendin-4	−11.3	−55.8	−20.1	−0.4 ± 0.2	-53.9 mg/dL	–	–	0.15	-53.9 ± 18.3	0.0055
